Experimental findings from US10105403B2, “Methods of treating iron deficiency to prevent iron-deficiency anemia by administration of Lactobacillus plantarum” (Probi AB, priority 2005, dated 2018) are described below.

In the test the test system is Caco-2 cells. The test can be described thus: Cellular 55Fe uptake and transfer across Caco-2 monolayers with bacterial suspensions. The class given is cell-based. The method, then:
Caco-2 cells were obtained from the American Type Culture Collection (Rockville, Md.) at passage 17 and used for experiments at passages 20-35. Stock cultures were maintained in Dulbecco's modified […] medium (DMEM) supplemented with 20% (v/v) fetal calf serum (FSC), […] penicillin G, and 100 mg/L streptomycin at 37° C. in a huminified atmosphere of 95% air-5% CO2. The growth medium was changed every second to third day. Cells were split at ˜80% confluence using 0.5 g/L trypsin with 0.5 mmol/L EDTA in Dulbecco's phosphate buffered saline (PBS). […]
Lactobacillus plantarum 299v (DSM9843), (5), Lactobacillus plantarum 299, (1), Lactobacillus plantarum Heal 9 (DSM 15312), (2), Lactobacillus plantarum Heal 19 (DSM15313), (4), Lactobacillus plantarum 299v mutant (AMJ1277), (3) and Lactobacillus reuteri, (6) were cultured in MRS broth at a rotary shaker (37° C., 200 rpm). […] The volume of cell culture corresponding to a certain cell-number was calculated from a predetermined standard curve. […]
Fresh supplemented DMEM was provided to the cells 1 day prior to the uptake and transfer assays. […] After 2 h incubation, the cells were washed four times with ice-cold wash buffer (150 mmol/L NaCl, 10 mmol/L HEPES, 1 mmol/L EDTA, pH7) and homogenized in 0.5M NaOH. ^55Fe transferred to the basolateral chamber or associated with the Caco-2 lysates was measured by liquid scintillation counting. […]

Regarding Lactobacillus reuteri, the Transport % (FeCl3 10 μmol/l in HBSS/HEPES, 55Fe traced, 2 h incubation, 6.7×10^7 cells/ml (Lactobacillus reuteri 3.35×10^7 cells/ml), control without bacteria 0.06) stood at 0.11%. For the same substance, the “Effect on Fe transport (in words)” value (FeCl3 10 μmol/l, Caco-2 monolayers, compared to neat Fe solution) was “an increase of the transport is seen, but not comparable with the different Lactobacillus plantarum strains”.
